# Results reported in patent US5770732A, “Pyrrolinone-based peptidomimetics” (The Trustees of the University of Pennsylvania, priority 1994, dated 1998).
# Target: T1, renin (Homo sapiens, UniProt P00797)
# T1 sequence (P00797 67-406): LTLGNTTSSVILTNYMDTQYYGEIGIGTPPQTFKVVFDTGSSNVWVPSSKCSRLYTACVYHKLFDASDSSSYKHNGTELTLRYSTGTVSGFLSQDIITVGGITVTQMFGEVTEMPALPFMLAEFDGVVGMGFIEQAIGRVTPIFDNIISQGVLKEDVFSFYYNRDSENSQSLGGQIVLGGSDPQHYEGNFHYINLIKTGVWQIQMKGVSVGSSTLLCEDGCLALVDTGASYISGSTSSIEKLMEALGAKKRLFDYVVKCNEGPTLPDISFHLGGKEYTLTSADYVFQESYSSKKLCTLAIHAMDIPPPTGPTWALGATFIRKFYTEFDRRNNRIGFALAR
# Experiment: Renin inhibition
# Type: biochemical
substance,measurement,value
[5(S)-prenyl-(5-benzyl)pyrrolin-4-one-3]-2(R)-isobutylacetate-[1-amino-1(S)-cyclohexylmethyl-2(R)3 3(S)-dihydroxy-5-methyl-hexane]-amide [Structure (10a)],concentration at which found to act as effective renin inhibitor,700 nM
